Values of other authors in patent US20080181937A1, “DOSAGE REGIMEN AND MEDICAMENT FOR GUARDING MEMORY AND BRAIN HEALTH AND FOR PREVENTING OR REDUCING RISK OF ONSET OF DEMENTIA BY ADMINISTRATION OF SPECIFIC VITAMINS AND SUPPLEMENTS (MEMOGUARD)” (priority 2007, published 2008).

How the values were obtained:
[1] = test system: patients with marked memory loss at risk for developing Alzheimer's disease
[2] = test system: animal model of rheumatoid arthritis
[3] = test system: normal healthy subjects and the elderly; details: fish 2-3 times a week or supplements
amyloid = details: in vivo

In the case of `COc1cc2c(cc1OC)C(=O)C(CC1CCN(Cc3ccccc3)CC1)C2` (centres unmarked) [Aricept], the “prevention of the onset of Alzheimer's disease” value [1] is listed as “Neither of these drugs were shown to significantly prevent the onset”.
In the case of `COc1cc(/C=C/C(=O)CC(=O)/C=C/c2ccc(O)c(OC)c2)ccc1O` [Curcumin], the inflammation [2] is given as “can reduce inflammation”.
For `CC/C=C\C/C=C\C/C=C\C/C=C\C/C=C\C/C=C\CCC(=O)O` [DHA], the memory and attention ([3]; normal healthy subjects) is given as “increases memory and attention”, the “risk of Alzheimer's” value ([3]; the elderly) is given as “significantly lowers the risk of Alzheimer's” and the “amount of amyloid in the brain” value (amyloid) is given as “can reduce the amount of amyloid in the brain”.
For `COc1ccc2c3c1O[C@H]1C[C@@H](O)C=C[C@@]31CCN(C)C2` [Razadyne], the “prevention of the onset of Alzheimer's disease” value [1] is listed as “Neither of these drugs were shown to significantly prevent the onset”.
In the case of `CC(C)Cc1ccc(C(C)C(=O)O)cc1` (centres unmarked) [ibuprofen], the “incidence of Alzheimer's disease” value (elderly patients; observational studies, individuals taking NSAID's) is listed as “lower incidence of Alzheimer's disease”.
In the case of vitamin E, the “transfer to a nursing home” value (elderly patients; patients with cognitive impairment or dementia) is given as “can even delay transfer to a nursing home”.
